The source of these data is PubChem BioAssay AID330 (DTP/NCI, 2004).

The assay concerns P388 leukemia ip, CD2F1 mice, survival T/C. The assay is described as follows: NCI In Vivo Anticancer Drug Screen. Data for tumor model P388 Leukemia (intraperitoneal) in CD2F1 (CDF1) mice. The following applies: endpoint: median survival time, higher = longer survival. The gist of the method:
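Mice carrying the transplanted tumor received test compound or vehicle. Survival was recorded in each group, and the value is the treated-group measurement divided by that of the vehicle-treated control group.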

[1] abbreviates: dose: 60.0 mg/kg/injection, schedule: Q01DX005 (ip), vehicle: saline with Tween-80.
[2] abbreviates: dose: 120.0 mg/kg/injection, schedule: Q01DX005 (ip), vehicle: saline with Tween-80.
[3] abbreviates: dose: 240.0 mg/kg/injection, schedule: Q01DX005 (ip), vehicle: saline with Tween-80.
Setting [4] is: dose: 50.0 mg/kg/injection, schedule: Q01DX009 (ip), vehicle: Klucel (hydroxypropylcellulose) (HPC).
Setting [5] is: dose: 100.0 mg/kg/injection, schedule: Q01DX009 (ip), vehicle: Klucel (hydroxypropylcellulose) (HPC).
Setting [6] is: dose: 200.0 mg/kg/injection, schedule: Q01DX009 (ip), vehicle: Klucel (hydroxypropylcellulose) (HPC).
Setting [7] is: dose: 50.0 mg/kg/injection, schedule: Q01DX005 (ip), vehicle: saline with Tween-80.
The mark [8] stands for this setting: dose: 100.0 mg/kg/injection, schedule: Q01DX005 (ip), vehicle: saline with Tween-80.
[9] abbreviates: dose: 200.0 mg/kg/injection, schedule: Q01DX005 (ip), vehicle: saline with Tween-80.
Setting [10] is: dose: 50.0 mg/kg/injection, schedule: Q01DX009 (ip), vehicle: saline with Tween-80.
[11] abbreviates: dose: 100.0 mg/kg/injection, schedule: Q01DX009 (ip), vehicle: saline with Tween-80.
[12] abbreviates: dose: 50.0 mg/kg/injection, schedule: Q01DX005 (ip), vehicle: Klucel (hydroxypropylcellulose) (HPC).
Where [13] appears, read: dose: 100.0 mg/kg/injection, schedule: Q01DX005 (ip), vehicle: Klucel (hydroxypropylcellulose) (HPC).
The mark [14] stands for this setting: dose: 200.0 mg/kg/injection, schedule: Q01DX005 (ip), vehicle: Klucel (hydroxypropylcellulose) (HPC).

Values joined by “and” are separate entries in the source; they are usually repeats but may differ in a detail not shown here. Equal entries are not always repeated. Toxic doses and inconclusive results are not listed.

Turning to `C1=C(c2ccccc2)SC(N2CCCCC2)S1` (stereo unspecified), the T/C (dose: 12.5 mg/kg/injection, schedule: Q01DX009 (ip), vehicle: distilled water + Tween-80) is 99 % of control; the T/C (dose: 25.0 mg/kg/injection, schedule: Q01DX009 (ip), vehicle: distilled water + Tween-80) is 99 % of control; the T/C (dose: 50.0 mg/kg/injection, schedule: Q01DX009 (ip), vehicle: distilled water + Tween-80) was 96 % of control; the T/C (dose: 100.0 mg/kg/injection, schedule: Q01DX009 (ip), vehicle: distilled water + Tween-80) was 104 % of control; the T/C (dose: 200.0 mg/kg/injection, schedule: Q01DX009 (ip), vehicle: distilled water + Tween-80) is 112 % of control.
As to `Cc1cc(=O)n2c(-c3ccccc3)csc2n1`, the T/C (dose: 100.0 mg/kg/injection, schedule: Q04DX003 (ip), vehicle: Klucel (hydroxypropylcellulose) (HPC)) was 101 % of control; the T/C (dose: 200.0 mg/kg/injection, schedule: Q04DX003 (ip), vehicle: Klucel (hydroxypropylcellulose) (HPC)) was 110 % of control; the T/C (dose: 400.0 mg/kg/injection, schedule: Q04DX003 (ip), vehicle: Klucel (hydroxypropylcellulose) (HPC)) is 113 % of control.
As to `CC(CCO)CCCO` (stereo unspecified), the T/C is 97 % of control under setting [1], 95 % of control under setting [2] and 101 % of control under setting [3].
As to `O=[N+]([O-])c1cccc(C=Nc2ccc(/C=C/C3(CCl)OCCO3)cc2)c1`, the T/C is, setting by setting: under setting [4], 98 % of control; under setting [5], 97 % of control; under setting [6], 91 % of control.
As for `Cn1cnc2n[nH]nc2c1=O`, the T/C by setting is: under setting [4], 105 % of control; under setting [5], 95 % of control; under setting [6], 100 % of control.
Take `NC(C(=O)O)C(=O)O`: the T/C reads like this: under setting [7], 101 % of control; under setting [8], 100 % of control; under setting [9], 89 % of control.
In the case of `COc1cc2c(O)cc(C(=O)O)c(-c3cc(OC)c(OC)c(OC)c3)c2cc1OC`, the T/C under setting [7] was 98 % of control, the T/C under setting [8] was 103 % of control and the T/C under setting [9] was 100 % of control.
Regarding `OCCN1CCN(C2=Nc3cccnc3Nc3cscc32)CC1`, the T/C was 101 % of control under setting [1], 111 % of control under setting [2] and 96 % of control under setting [3].
As for `O=C(Nc1cccc2ccccc12)C1C(=O)C(=O)N(c2cccc3ccccc23)C1=O` (stereo unspecified), the T/C is, setting by setting: under setting [4], 103 % of control; under setting [5], 105 % of control; under setting [6], 100 % of control.
Consider `NS(=O)(=O)c1cc(C(=O)O)cc(NC(=O)CCCCl)c1Oc1ccccc1`, for which the T/C by setting is: under setting [10], 103 % of control and 123 % of control; under setting [11], 100 % of control and 96 % of control; (dose: 200.0 mg/kg/injection, schedule: Q01DX009 (ip), vehicle: saline with Tween-80) 104 % of control and 123 % of control.
As to `COC1=C(OC)C(=O)C2=C(OCCCCO2)C1=O`, the T/C (dose: 15.0 mg/kg/injection, schedule: Q01DX005 (ip), vehicle: saline with Tween-80) was 104 % of control; the T/C (dose: 30.0 mg/kg/injection, schedule: Q01DX005 (ip), vehicle: saline with Tween-80) is 103 % of control; the T/C under setting [1] was 101 % of control and 107 % of control; the T/C under setting [2] is 100 % of control; the T/C under setting [3] was 99 % of control.
In the case of `Cc1coc2c1C(=O)C(=O)c1c-2ccc2c1CCCC2(C)CO` (stereo unspecified) (tested in a mixture with another compound), the T/C reads like this: under setting [11], 95 % of control; (dose: 400.0 mg/kg/injection, schedule: Q01DX009 (ip), vehicle: saline with Tween-80) 90 % of control.
For the molecule `OCC1OC(O)C(N=C/C=C/c2ccccc2)C(O)C1O` (stereo unspecified), the T/C under setting [7] is 104 % of control, the T/C under setting [8] is 117 % of control and the T/C under setting [9] is 115 % of control.
`O=C1Nc2ccccc2/C1=N/n1c(-c2ccccc2)nc2ccccc2c1=O`: the T/C was 97 % of control (dose: 12.5 mg/kg/injection, schedule: Q01DX005 (ip), vehicle: Klucel (hydroxypropylcellulose) (HPC)); 97 % of control (dose: 25.0 mg/kg/injection, schedule: Q01DX005 (ip), vehicle: Klucel (hydroxypropylcellulose) (HPC)); 87 % of control under setting [12]; 90 % of control under setting [13]; 89 % of control under setting [14].
For `CN1CC(NC(=O)N(CCCl)N=O)CC2c3cccc4c3c(cn4N=O)CC21` (stereo unspecified), the T/C runs as follows: (dose: 50.0 mg/kg/injection, schedule: Q01DX001 (ip), vehicle: Klucel (hydroxypropylcellulose) (HPC)) 166 % of control; (dose: 100.0 mg/kg/injection, schedule: Q01DX001 (ip), vehicle: Klucel (hydroxypropylcellulose) (HPC)) 166 % of control and 201 % of control; (dose: 200.0 mg/kg/injection, schedule: Q01DX001 (ip), vehicle: Klucel (hydroxypropylcellulose) (HPC)) 166 % of control.
On to `O=C1N=NC2NC=CN3C=CC=C1C23` (stereo unspecified), for which the T/C was 102 % of control under setting [1], 107 % of control under setting [2] and 110 % of control under setting [3].
For the molecule `CN1OC(CS(=O)(=O)c2ccccc2)(S(=O)(=O)c2ccccc2)CC1c1ccccc1` (stereo unspecified), the T/C under setting [12] was 103 % of control, the T/C under setting [13] was 101 % of control and the T/C under setting [14] is 101 % of control.
With `FC(F)(F)COP1(OCC(F)(F)F)(OCC(F)(F)F)SC(C(F)(F)F)=C(C(F)(F)F)S1`, the T/C is, setting by setting: (dose: 50.0 mg/kg/injection, schedule: Q04DX002 (ip), vehicle: saline) 102 % of control and 103 % of control; (dose: 100.0 mg/kg/injection, schedule: Q04DX002 (ip), vehicle: saline) 99 % of control and 100 % of control (2×); (dose: 200.0 mg/kg/injection, schedule: Q04DX002 (ip), vehicle: saline) 100 % of control and 107 % of control; (dose: 400.0 mg/kg/injection, schedule: Q04DX002 (ip), vehicle: saline) 102 % of control and 107 % of control.
Regarding `C1O[C@@H]1[C@H]1CO1`, the T/C (dose: 6.25 mg/kg/injection, schedule: Q01DX009 (ip), vehicle: saline) was 104 % of control; the T/C (dose: 6.25 mg/kg/injection, schedule: Q04DX003 (ip), vehicle: saline) is 120 % of control; the T/C (dose: 12.5 mg/kg/injection, schedule: Q01DX009 (ip), vehicle: saline) is 109 % of control; the T/C (dose: 12.5 mg/kg/injection, schedule: Q04DX003 (ip), vehicle: saline) is 120 % of control; the T/C (dose: 25.0 mg/kg/injection, schedule: Q01DX009 (ip), vehicle: saline) was 157 % of control; the T/C (dose: 25.0 mg/kg/injection, schedule: Q04DX003 (ip), vehicle: saline) is 100 % of control.
`CC(=O)Oc1ccc(/C=N/NC(N)=S)nc1`: the T/C runs as follows: (dose: 4.0 mg/kg/injection, schedule: Q01DX009 (ip), vehicle: saline with Tween-80) 154 % of control; (dose: 14.6 mg/kg/injection, schedule: Q01DX009 (ip), vehicle: saline with Tween-80) 163 % of control; (dose: 22.0 mg/kg/injection, schedule: Q01DX009 (ip), vehicle: saline with Tween-80) 177 % of control; (dose: 33.0 mg/kg/injection, schedule: Q01DX009 (ip), vehicle: saline with Tween-80) 181 % of control; (dose: 37.5 mg/kg/injection, schedule: Q01DX009 (ip), vehicle: saline with Tween-80) 170 % of control; under setting [10], 204 % of control. Besides, the T/C is, setting by setting: (dose: 75.0 mg/kg/injection, schedule: Q01DX009 (ip), vehicle: saline with Tween-80) 173 % of control; (dose: 150.0 mg/kg/injection, schedule: Q01DX009 (ip), vehicle: saline with Tween-80) 88 % of control.
As for `O=c1cc(-c2ccc(O)cc2)oc2cc(O)c(C3OC(CO)C(O)C(O)C3OC3OC(CO)C(O)C(O)C3O)c(O)c12` (stereo unspecified), the T/C was 102 % of control (dose: 25.0 mg/kg/injection, schedule: Q01DX009 (ip), vehicle: Klucel (hydroxypropylcellulose) (HPC)); 107 % of control under setting [4]; 105 % of control under setting [5]; 99 % of control under setting [6].
As for `C=C(CC)C(=O)OCC`, the T/C runs as follows: (dose: 50.0 mg/kg/injection, schedule: Q01DX009 (ip), vehicle: saline) 95 % of control; (dose: 100.0 mg/kg/injection, schedule: Q01DX009 (ip), vehicle: saline) 102 % of control; (dose: 200.0 mg/kg/injection, schedule: Q01DX009 (ip), vehicle: saline) 104 % of control.
